{
  "source": "paper PMC7541396",
  "about": "(Nature biotechnology, 2020)",
  "key": {"TCR004": {"system": "TCR004", "type": "cell-based, human", "conditions": "Supplementary Fig. 4b, n=3"}, "TCR121": {"system": "TCR121", "experiment": "Mtb proteome screen and PPE protein stimulation with aAPC, TCR121", "type": "cell-based, human"}},
  "data": [
    {"molecule": "CFP10: Mtb protein, cell-free expressed; TCR004 target", "values": [
      {"measurement": "response of TCR004 to cell-free expressed protein", "setting": "TCR004", "result": "only responded to its target antigen CFP10"}
    ]},
    {"molecule": "PPE26: Mtb PPE protein, cell-free expressed (protein, UniProt Q79FK6 1-393, looked up) PPE family protein PPE26: MDFGALPPEVNSVRMYAGPGSAPMVAAASAWNGLAAELSSAATGYETVITQLSSEGWLGPASAAMAEAVAPYVAWMSAAAAQAEQAATQARAAAAAFEAAFAATVPPPLIAANRASLMQLISTNVFGQNTSAIAAAEAQYGEMWAQDSAAMYAYAGSSASASAVTPFSTPPQIANPTAQGTQAAAVATAAGTAQSTLTEMITGLPNALQSLTSPLLQSSNGPLSWLWQILFGTPNFPTSISALLTDLQPYASFFYNTEGLPYFSIGMGNNFIQSAKTLGLIGSAAPAAVAAAGDAAKGLPGLGGMLGGGPVAAGLGNAASVGKLSVPPVWSGPLPGSVTPGAAPLPVSTVSAAPEAAPGSLLGGLPLAGAGGAGAGPRYGFRPTVMARPPFAG", "values": [
      {"measurement": "stimulation of TCR121 by whole PPE protein", "setting": "TCR121", "result": "strong to modest stimulation"}
    ]}
  ]
}
